10 molecules from PubChem BioAssay (NCI) can be followed below.

Several values for one entry are separate records, joined by “and”; a condition that tells them apart may be missing. Identical values can stand only once.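 Cells were grown in 96-well plates and exposed to each compound for 48 hours at five concentrations; endpoints were interpolated linearly between bracketing concentrations, or set to the highest concentration if not reached. GI50 = concentration required for 50% inhibition of growth. TGI: concentration producing complete growth inhibition.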

Assay in all cases: NCI anticancer screen, dose series, 48 h
Assay [1] has as its system ACHN renal.
Assay [2] relates to CCRF-CEM leukemia.
Assay [3] deals with HT29 colon.
Assay [4] deals with K-562 leukemia.
For assay [5], the system named is MCF7 breast.
The subject of assay [6] is MDA-MB-435.
Assay [7] relates to NCI/ADR-RES ovarian.
In assay [8] the test system is OVCAR-3 ovarian.
Assay [9] relates to SF-295 CNS.
Assay [10] relates to SNB-19 CNS.
Assay [11] relates to SR leukemia.
The test system of assay [12] is T-47D breast.
For assay [13], the system named is UACC-257 melanoma.
Assay [14] has as its system HOP-92 NSCLC.

Consider `COC(CN(C)C(=S)Nc1cccc2ccccc12)OC`, for which the TGI in assay [1], in assay [2], in assay [3], in [4], in assay [5] and in assay [6] was greater than 10 µM in each case. Further, the TGI in assay [7], in [8], in assay [9], in [10], in [11] and in assay [12] was greater than 10 µM in each case. Besides, in [13], the TGI was greater than 10 µM.
`O=C(NCCN(CCNC(=O)c1cccc(O)c1O)CCNC(=O)c1cccc(O)c1O)c1cccc(O)c1O`: the TGI in assay [1] is greater than 67.7 µM; in [14], greater than 86.9 µM; in assay [3], greater than 100 µM; in [4] it was greater than 100 µM; in assay [5] it was greater than 100 µM; in assay [6] it was greater than 100 µM. Further, the TGI in assay [7] was greater than 100 µM; in [8] it was greater than 40.2 µM; in assay [9], greater than 100 µM; in [10], greater than 100 µM; in [11], greater than 34.2 µM; in assay [12], greater than 89.7 µM. In assay [13], this molecule returned a TGI greater than 100 µM.
In the case of `COC(=O)c1c(C)cccc1/C=C1\Cc2ccc(C)c(C)c2C1=O`, the TGI in [1], in assay [14], in assay [3], in assay [4], in assay [5] and in assay [8] was greater than 100 µM each time. For the same molecule, the TGI in assay [9], in assay [10], in assay [11], in assay [12] and in assay [13] was greater than 100 µM in each case.
As to `CCN1/C(=C/C#C/C(C)=C\c2sc3ccc(Cl)cc3[n+]2CC)Sc2ccc(Cl)cc21`, the TGI in assay [1] was 14.8 µM; in assay [2] it was greater than 100 µM; in assay [14], 5.52 µM; in assay [3] it was 14 µM; in [5] it was 15.3 µM; in assay [6], 13.7 µM. Further, the TGI is 80.4 µM in [7]; 14.9 µM in [9]; 18.9 µM in assay [10]; greater than 100 µM in assay [11]; 17.6 µM in [12]; 22 µM in assay [13].
On to `O=C(CCc1cc(O)cc(O)c1)NCCc1cc(O)cc(OCc2ccccc2)c1`, for which the TGI in [1] is 81.6 µM; in [14], greater than 100 µM; in [3], greater than 100 µM; in assay [4], 96.3 µM; in [5], greater than 100 µM; in assay [6], greater than 100 µM. Also, the TGI was greater than 100 µM in assay [7]; greater than 100 µM in assay [8]; greater than 100 µM in assay [9]; greater than 100 µM in [10]; 87.3 µM in [11]; greater than 100 µM in assay [12]. The TGI in [13] is greater than 100 µM.
Turning to `COC1(OC)c2occc2C(=N)c2ccc(=O)oc21`, the TGI in [1], in assay [2], in [14], in assay [3], in assay [4] and in assay [5] was greater than 100 µM each time. Moreover, the TGI in assay [6], in assay [8], in assay [9], in assay [10], in [11] and in [12] was greater than 100 µM in each case. In addition, in [13], the TGI is greater than 100 µM.
On to `COC(=O)/C=C(\C(=O)OC)c1cc(C)c2cc(C(C)C)ccc(C)c1-2`, for which the TGI in [1] was greater than 100 µM; in [2] it was greater than 100 µM; in assay [14], 77.9 µM; in assay [3] it was 26.7 µM; in assay [4], greater than 100 µM; in [5], 72.8 µM. The TGI in assay [6], in [7], in assay [8], in [9], in assay [10] and in [11] was greater than 100 µM each time. The molecule also returned a TGI in [12] greater than 100 µM.
Regarding `O=[N+]([O-])c1ccc(/C=N/Nc2nc3ccccc3[nH]2)o1`, the TGI is 26.6 µM in [2]; 39.1 µM in assay [14]; 68 µM in assay [3]; 32.1 µM in assay [4]; 18 µM in assay [6]; greater than 100 µM in assay [7]. Moreover, the TGI is 28.1 µM in assay [8]; 41.7 µM in assay [9]; greater than 100 µM in assay [10]; 23.6 µM in [11]; 35.8 µM in [12]; greater than 100 µM in assay [13].
As to `CCOC(=O)c1c(NC(=O)c2ccccc2)c(C#N)c2n1CCCCC2`, the TGI in [1], in assay [2], in assay [14], in assay [3], in assay [4] and in [5] was greater than 100 µM throughout. Besides, the TGI in assay [6], in assay [7], in assay [9], in [10], in assay [11] and in assay [12] was greater than 100 µM throughout. Further, in [13], the TGI was greater than 100 µM.
Consider `O=[N+]([O-])c1cccc2nc3ccccc3c(NCCCCCNc3c4ccccc4nc4cccc([N+](=O)[O-])c34)c12`, for which the TGI in assay [1] is 0.115 µM and 0.0165 µM; in [14], 0.0973 µM; in assay [3] it was 0.0922 µM; in [4], 0.678 µM; in assay [6], 0.259 µM and 0.0288 µM; in [7] it was 2.19 µM and 1.28 µM. Besides, the TGI in assay [8] was 0.262 µM and 0.054 µM; in [9], 0.905 µM and 1.13 µM; in [11], 0.0202 µM; in [12] it was 0.837 µM and 2.24 µM; in [13], 0.393 µM and 1.23 µM. The GI50 was 0.105 µM and 0.0111 µM in assay [6]; 0.297 µM in assay [7]; 0.0135 µM in [8]; 0.0226 µM in assay [9]; 0.121 µM in assay [12]; 0.0619 µM in assay [13].
